{"source": "patent US8658655B2", "about": "“Inhibition of activated cdc42-associated kinase 1” (Fox Chase Cancer Center, priority 2011, dated 2014)", "key": {"[1]": {"test_system": "Ack1 autophosphorylation (Tyr284)", "assay": "Ack1 autophosphorylation in HEK293 cells (Western blot phospho-Ack1)", "assay_type": "cell-based", "conditions": "HEK293 cells expressing Ack1", "from_the_text": "(§1) Thus, this Example proposed derivatives of compound 1 that inhibit Ack1 in the cellular context while retaining its target specificity."}, "Ack1 [2]": {"target": "T1, Ack1 (Homo sapiens, UniProt Q07912)", "assay": "Ack1 dose-response radiometric peptide kinase assay", "assay_type": "biochemical", "description": "40 ng of recombinant Ack1 was incubated with saturating quantities of peptide substrate ([…] (SEQ ID NO:1) and in the presence of a compound in Ack1 kinase buffer (20 mM Tris pH 7.4, 10 mM MgCl2, 0.1 mM NaVO4, 0.5 mM dithiothreitol). [^32P]-γ-ATP was added in a total concentration of 10 μM ATP to initiate the reaction. Following 30 minute incubation at 30° C., phosphorylated peptide substrate was captured by spotting the reaction on P81 cationic filter paper and unincorporated [^32P]-γ-ATP was removed by washing in a solution of phosphoric acid. Phosphorylated peptide was then quantified by autoradiography or by Phosphorlmager analysis or by scintillation counting.\nas §1"}, "Aurora [3]": {"test_system": "Aurora", "conditions": "Heron et al. 2006; cited from earlier work"}, "[4]": {"test_system": "panel of 300 protein kinases", "assay": "Kinase selectivity across panel of 300 kinases (Gini coefficient)", "assay_type": "biochemical, human", "conditions": "500 nM", "description": "(§2) Disparate replicates were eliminated from the analysis.\nThe data were analyzed for compounds that inhibit Ack1. […] Inhibitor selectivity was quantitatively assessed using the Gini coefficient (Piotr P et al. (2007) J. Med. Chem., 50:5773-9; and, Lynette A et al. (2009) J. Chem. Biol. 2:131-51)."}, "Aurora B": {"target": "Aurora B (Homo sapiens, UniProt Q96GD4)", "sequence (Q96GD4 whole entry)": "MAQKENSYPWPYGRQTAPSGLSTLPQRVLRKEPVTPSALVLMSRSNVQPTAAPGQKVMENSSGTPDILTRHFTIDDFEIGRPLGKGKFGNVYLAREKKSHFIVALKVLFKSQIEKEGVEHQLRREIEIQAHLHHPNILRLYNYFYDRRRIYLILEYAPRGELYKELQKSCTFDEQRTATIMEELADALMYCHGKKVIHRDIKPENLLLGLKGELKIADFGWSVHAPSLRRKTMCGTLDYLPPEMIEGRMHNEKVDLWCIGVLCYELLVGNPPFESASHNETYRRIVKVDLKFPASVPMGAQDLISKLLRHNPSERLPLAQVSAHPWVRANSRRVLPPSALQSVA", "assay": "Kinase panel screen at 500 nM: Aurora B", "assay_type": "biochemical", "conditions": "500 nM compound, 10 μM ATP", "from_the_text": "as §2"}, "Aurora [5]": {"test_system": "Aurora", "conditions": "Heron et al. 2006; cited from earlier work", "remark": "listed apart in the source"}, "Ack1 [6]": {"target": "T1, Ack1", "assay": "Kinase panel screen at 500 nM: Ack1", "assay_type": "biochemical", "set-up": "only the kinase domain of Ack1 and a limited additional region C-terminal (amino acids 110-476)", "conditions": "500 nM compound, 10 μM ATP; for inhibition at 0.5 µM: duplicate, read-out: inhibition of Ack1 catalytic activity", "protocol": "Each inhibitor was tested in duplicate at 500 nM against each kinase using radiolabeled ATP (10 μM total ATP) and a peptide or protein substrate."}, "[7]": {"target": "non-receptor tyrosine kinase BRK (Homo sapiens, UniProt Q13882)", "sequence (Q13882 whole entry)": "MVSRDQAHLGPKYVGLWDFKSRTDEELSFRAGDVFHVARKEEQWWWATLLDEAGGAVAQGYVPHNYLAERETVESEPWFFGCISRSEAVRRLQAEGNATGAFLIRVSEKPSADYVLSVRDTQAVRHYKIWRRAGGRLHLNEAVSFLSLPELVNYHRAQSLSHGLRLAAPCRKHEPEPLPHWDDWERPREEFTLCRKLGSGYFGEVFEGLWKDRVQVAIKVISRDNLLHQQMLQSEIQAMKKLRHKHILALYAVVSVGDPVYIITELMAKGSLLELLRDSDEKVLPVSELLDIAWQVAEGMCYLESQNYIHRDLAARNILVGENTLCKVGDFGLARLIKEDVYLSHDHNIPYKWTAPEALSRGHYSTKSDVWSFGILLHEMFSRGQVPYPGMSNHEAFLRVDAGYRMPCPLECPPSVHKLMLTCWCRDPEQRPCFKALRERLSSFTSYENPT", "assay": "Kinase panel screen at 500 nM: BRK", "assay_type": "biochemical", "conditions": "500 nM compound, 10 μM ATP", "from_the_text": "as §2"}, "FLT3": {"target": "T2, FLT3 (Homo sapiens, UniProt P36888)", "T2 sequence (P36888 27-993)": "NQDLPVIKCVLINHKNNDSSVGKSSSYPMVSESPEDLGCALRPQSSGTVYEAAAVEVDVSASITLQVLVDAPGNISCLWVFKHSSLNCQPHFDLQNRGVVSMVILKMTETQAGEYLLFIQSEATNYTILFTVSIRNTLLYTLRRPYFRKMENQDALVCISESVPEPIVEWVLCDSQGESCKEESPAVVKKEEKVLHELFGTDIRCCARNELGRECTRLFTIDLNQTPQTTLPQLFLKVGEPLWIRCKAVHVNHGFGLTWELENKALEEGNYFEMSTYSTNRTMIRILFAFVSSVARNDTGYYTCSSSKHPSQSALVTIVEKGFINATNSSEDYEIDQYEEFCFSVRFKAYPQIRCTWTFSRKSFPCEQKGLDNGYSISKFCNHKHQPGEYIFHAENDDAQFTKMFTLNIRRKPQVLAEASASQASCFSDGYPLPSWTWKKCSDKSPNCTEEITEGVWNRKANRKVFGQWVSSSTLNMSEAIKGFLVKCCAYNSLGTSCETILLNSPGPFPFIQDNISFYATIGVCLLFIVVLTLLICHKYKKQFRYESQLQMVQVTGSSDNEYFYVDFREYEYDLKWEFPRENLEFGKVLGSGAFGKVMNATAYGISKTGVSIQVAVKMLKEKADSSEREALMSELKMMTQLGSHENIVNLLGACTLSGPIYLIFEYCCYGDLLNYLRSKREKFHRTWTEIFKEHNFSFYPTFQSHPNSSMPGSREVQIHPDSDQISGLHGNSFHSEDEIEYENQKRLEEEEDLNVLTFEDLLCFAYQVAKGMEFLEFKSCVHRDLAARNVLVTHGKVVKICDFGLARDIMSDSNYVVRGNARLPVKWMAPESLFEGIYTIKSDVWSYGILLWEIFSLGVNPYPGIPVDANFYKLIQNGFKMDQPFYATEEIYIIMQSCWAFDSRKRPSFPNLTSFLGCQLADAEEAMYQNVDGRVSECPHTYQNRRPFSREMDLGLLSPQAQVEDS", "assay": "Kinase panel screen at 500 nM: FLT3", "assay_type": "biochemical", "conditions": "500 nM compound, 10 μM ATP", "from_the_text": "as §2"}, "Tyk2": {"target": "Tyk2 (Homo sapiens, UniProt P29597)", "sequence (P29597 whole entry)": "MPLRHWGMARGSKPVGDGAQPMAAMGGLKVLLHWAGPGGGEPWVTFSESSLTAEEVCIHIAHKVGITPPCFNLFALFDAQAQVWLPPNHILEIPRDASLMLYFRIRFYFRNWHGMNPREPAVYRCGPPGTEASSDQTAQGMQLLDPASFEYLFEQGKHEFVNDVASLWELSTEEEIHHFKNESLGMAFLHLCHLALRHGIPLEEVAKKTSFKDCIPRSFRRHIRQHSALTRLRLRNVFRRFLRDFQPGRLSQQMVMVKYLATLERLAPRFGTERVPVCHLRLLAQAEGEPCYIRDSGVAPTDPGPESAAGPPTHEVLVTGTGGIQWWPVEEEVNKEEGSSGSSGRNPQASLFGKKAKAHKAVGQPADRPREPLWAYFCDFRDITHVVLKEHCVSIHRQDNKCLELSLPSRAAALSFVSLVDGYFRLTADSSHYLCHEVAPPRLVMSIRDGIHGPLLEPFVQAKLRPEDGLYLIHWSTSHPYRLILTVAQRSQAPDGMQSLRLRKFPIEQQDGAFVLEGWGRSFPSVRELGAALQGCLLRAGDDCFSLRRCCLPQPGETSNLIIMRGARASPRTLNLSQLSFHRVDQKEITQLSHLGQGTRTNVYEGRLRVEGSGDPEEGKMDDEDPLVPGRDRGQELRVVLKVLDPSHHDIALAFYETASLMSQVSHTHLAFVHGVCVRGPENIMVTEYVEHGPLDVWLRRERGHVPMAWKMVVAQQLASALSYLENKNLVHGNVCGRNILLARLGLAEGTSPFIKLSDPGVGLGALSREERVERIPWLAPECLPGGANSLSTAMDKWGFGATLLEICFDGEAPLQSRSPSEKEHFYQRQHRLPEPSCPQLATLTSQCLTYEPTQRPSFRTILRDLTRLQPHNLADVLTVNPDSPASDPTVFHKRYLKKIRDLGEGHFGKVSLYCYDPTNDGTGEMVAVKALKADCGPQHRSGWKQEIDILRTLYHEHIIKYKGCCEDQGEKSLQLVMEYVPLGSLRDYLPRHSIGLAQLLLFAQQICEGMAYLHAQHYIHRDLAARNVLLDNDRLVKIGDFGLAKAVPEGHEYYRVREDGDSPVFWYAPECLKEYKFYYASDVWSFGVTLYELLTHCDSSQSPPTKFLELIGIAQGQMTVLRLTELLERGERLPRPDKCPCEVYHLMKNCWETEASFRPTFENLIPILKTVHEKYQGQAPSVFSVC", "assay": "Kinase panel screen at 500 nM: Tyk2", "assay_type": "biochemical", "conditions": "500 nM compound, 10 μM ATP", "from_the_text": "as §2"}, "JAK1/2": {"test_system": "JAK1/2", "assay": "Kinase panel screen at 500 nM: JAK1/2", "assay_type": "biochemical, human", "conditions": "500 nM compound, 10 μM ATP", "from_the_text": "(§3) To directly test the kinase selectivity of a large number of established kinase inhibitors, high throughput kinase assays were employed against a panel of ^˜300 recombinant human protein kinases. An economical method based on conventional filter-binding assays was used at a nanoliter scale using radiolabeled ATP that directly measures kinase catalytic activity toward a polypeptide and/or protein substrate. […] The library of inhibitors comprises 160 pure compounds known to inhibit kinases representing all major protein kinase families, as well as a limited number of compounds that were not developed to target protein kinases (FIG. 1A).\n(§4) The kinase panel tested represents all major human protein kinase. For simplicity, all compounds were tested at a concentration of 0.5 μM in the presence of 10 μM ATP.\n(§5) Each kinase-inhibitor pair was tested in duplicate and results were expressed as percent remaining kinase activity compared to solvent (DMSO) control reactions. Disparate replicates were eliminated from the analysis.\n(§6) As described above, a large-scale parallel screening of a collection of 160 known kinase inhibitors was conducted against a panel of 294-300 recombinant human protein kinases. Goals included the identification of novel inhibitor scaffolds for new kinase targets and the revelation of the target specificities of this panel of research compounds. […]"}, "IKK-2": {"target": "T3, IKK-2 (Homo sapiens, UniProt O14920)", "T3 sequence (O14920 1-756)": "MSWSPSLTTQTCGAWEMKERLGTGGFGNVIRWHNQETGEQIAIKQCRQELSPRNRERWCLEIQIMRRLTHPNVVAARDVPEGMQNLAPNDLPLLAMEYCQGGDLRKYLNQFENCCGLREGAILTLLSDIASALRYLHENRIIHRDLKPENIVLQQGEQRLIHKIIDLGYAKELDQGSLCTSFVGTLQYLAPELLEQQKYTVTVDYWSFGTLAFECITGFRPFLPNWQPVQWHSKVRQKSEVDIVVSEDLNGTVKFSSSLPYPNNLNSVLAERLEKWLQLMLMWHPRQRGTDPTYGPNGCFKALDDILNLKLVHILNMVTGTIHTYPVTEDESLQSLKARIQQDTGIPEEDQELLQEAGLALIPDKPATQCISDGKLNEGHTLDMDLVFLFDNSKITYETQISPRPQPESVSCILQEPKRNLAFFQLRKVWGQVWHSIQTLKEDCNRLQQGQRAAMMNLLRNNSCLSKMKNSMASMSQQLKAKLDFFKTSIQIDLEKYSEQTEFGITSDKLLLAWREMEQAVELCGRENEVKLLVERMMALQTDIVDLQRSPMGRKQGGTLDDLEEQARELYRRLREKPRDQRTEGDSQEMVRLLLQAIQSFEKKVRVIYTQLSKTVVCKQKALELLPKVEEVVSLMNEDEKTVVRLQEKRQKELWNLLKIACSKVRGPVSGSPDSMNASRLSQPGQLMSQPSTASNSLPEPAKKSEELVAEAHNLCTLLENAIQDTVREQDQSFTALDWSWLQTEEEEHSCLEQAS", "assay": "Kinase panel screen at 500 nM: IKK-2", "assay_type": "biochemical", "conditions": "500 nM compound, 10 μM ATP", "from_the_text": "as §3, §4, §5, §6"}, "RET": {"target": "RET (Homo sapiens, UniProt P07949)", "sequence (P07949 29-1114)": "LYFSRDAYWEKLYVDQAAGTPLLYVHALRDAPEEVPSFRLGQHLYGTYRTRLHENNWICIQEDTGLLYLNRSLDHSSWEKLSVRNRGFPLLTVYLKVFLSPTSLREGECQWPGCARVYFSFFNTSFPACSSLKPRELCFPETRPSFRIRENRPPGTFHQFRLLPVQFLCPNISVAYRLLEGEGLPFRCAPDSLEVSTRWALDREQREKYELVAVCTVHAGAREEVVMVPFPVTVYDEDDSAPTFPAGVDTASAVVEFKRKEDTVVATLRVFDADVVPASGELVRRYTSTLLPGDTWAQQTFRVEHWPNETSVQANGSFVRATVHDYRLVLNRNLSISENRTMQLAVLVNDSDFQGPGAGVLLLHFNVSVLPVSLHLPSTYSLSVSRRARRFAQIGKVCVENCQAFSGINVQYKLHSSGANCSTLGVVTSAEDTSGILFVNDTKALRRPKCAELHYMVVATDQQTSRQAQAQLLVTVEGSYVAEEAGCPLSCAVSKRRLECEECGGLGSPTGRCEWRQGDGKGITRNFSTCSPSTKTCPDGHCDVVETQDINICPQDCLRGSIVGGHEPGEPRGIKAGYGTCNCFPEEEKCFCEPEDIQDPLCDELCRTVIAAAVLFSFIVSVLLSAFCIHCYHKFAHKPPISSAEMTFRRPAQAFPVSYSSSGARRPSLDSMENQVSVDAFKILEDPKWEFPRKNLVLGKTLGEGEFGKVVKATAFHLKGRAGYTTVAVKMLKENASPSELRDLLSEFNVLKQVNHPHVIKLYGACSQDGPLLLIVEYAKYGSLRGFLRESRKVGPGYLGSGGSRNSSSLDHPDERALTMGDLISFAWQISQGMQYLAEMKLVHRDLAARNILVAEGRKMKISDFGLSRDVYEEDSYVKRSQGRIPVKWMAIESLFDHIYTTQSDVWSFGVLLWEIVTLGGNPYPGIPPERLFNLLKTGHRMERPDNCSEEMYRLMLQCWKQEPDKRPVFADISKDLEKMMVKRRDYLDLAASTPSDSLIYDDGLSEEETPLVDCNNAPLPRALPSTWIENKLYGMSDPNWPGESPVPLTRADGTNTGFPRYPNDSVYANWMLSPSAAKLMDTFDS", "assay": "Kinase panel screen at 500 nM: RET", "assay_type": "biochemical", "conditions": "500 nM compound, 10 μM ATP", "from_the_text": "as §2"}}, "note": "“Also recorded” adds a separate entry of the source."}
{"smiles": "COc1cc2c(Nc3ccc(NC(=O)c4ccccc4)cc3)ncnc2cc1OCCCN1CCOCC1", "note": "[Compound 1.1]", "values": [{"measurement": "inhibition of Ack1 autophosphorylation in cells", "setting": "[1]", "result": "potently inhibited Ack1 autophosphorylation in cells; also recorded: inhibits Ack1 in cells"}, {"measurement": "in vitro Ack1 activity compared to compound 1", "setting": "Ack1 [2]; data not shown", "result": "comparable in vitro activity to compound 1"}]}
{"smiles": "COc1cc2ncnc(Nc3ccc(NC(=O)c4ccccc4)cc3)c2cc1OC", "note": "[Compound 1]", "values": [{"measurement": "cellular efficacy against Aurora", "setting": "Aurora [3]", "result": "poor cellular efficacy"}, {"measurement": "kinase selectivity for Ack1 over other kinases", "setting": "[4]", "result": "unusually selective"}, {"measurement": "inhibition at 0.5 µM", "setting": "Aurora B", "result": 75, "unit": "%"}, {"measurement": "inhibition of Ack1 autophosphorylation in cells", "setting": "[1]", "result": "did not reduce Ack1 autophosphorylation"}, {"measurement": "in vitro activity against Aurora", "setting": "Aurora [5]", "result": "good in vitro activity"}, {"measurement": "inhibition at 0.5 µM", "setting": "Ack1 [6]", "result": 95, "unit": "%"}, {"measurement": "inhibition at 0.5 µM", "setting": "[7]", "result": "> 50", "unit": "%"}, {"measurement": "IC50", "setting": "Ack1 [2]; dose-response, 10 μM ATP, read-out: IC50 against Ack1 in vitro", "result": 5, "unit": "nM"}]}
{"smiles": "NC(=O)Nc1sc(-c2ccc(F)cc2)cc1C(N)=O", "note": "[Compound 3]", "values": [{"measurement": "inhibition of catalytic activity of FLT3", "setting": "FLT3", "result": "partial inhibition"}, {"measurement": "inhibition of catalytic activity of Tyk2", "setting": "Tyk2", "result": "partial inhibition"}, {"measurement": "inhibition at 0.5 µM", "setting": "Ack1 [6]", "result": 94, "unit": "%"}, {"measurement": "inhibition of catalytic activity of JAK1/2", "setting": "JAK1/2", "result": "partial inhibition"}, {"measurement": "inhibition at 0.5 µM", "setting": "IKK-2", "result": 91, "unit": "%"}, {"measurement": "inhibition of catalytic activity of RET", "setting": "RET", "result": "partial inhibition"}]}
{"smiles": "CN[C@@H]1C[C@H]2O[C@@](C)([C@@H]1OC)n1c3ccccc3c3c4c(c5c6ccccc6n2c5c31)C(=O)NC4", "note": "[staurosporine, reference compound]", "values": [{"measurement": "inhibition of Ack1 in the screen", "setting": "Ack1 [6]", "result": "inhibited Ack1 in addition to many other kinases"}]}
